Active and inactive are the calls of the source. The calls are words filed in the database; no cut-off is given here.
Experiments:
HT-1080 = assay: Induction of nitric oxide production in human HT1080 cells by Griess assay; format: functional; parameters: concentration or dose not given beside the values
Escherichia coli [1] = assay: Bactericidal activity against Escherichia coli MSCL 332 incubated for 24 hrs followed by colony transfer to agar plates for 24 hrs by colony counting based assay; format: functional; conditions: MSCL 332, 24 h, read-out: MBC99.9
Escherichia coli [2] = assay: Antibacterial activity against Escherichia coli MSCL 332 after 24 hrs by broth dilution method; format: functional; conditions: MSCL 332, 24 h
Candida albicans [3] = assay: Antifungal activity against Candida albicans MSCL 378 at 10 mg/ml after 48 hrs by agar dish diffusion method; format: functional; conditions: MSCL 378, 48 h, read-out: DIZ
Proteus mirabilis [4] = assay: Antibacterial activity against Proteus mirabilis MSCL 590 at 5 mg/ml after 24 hrs by agar dish diffusion method; format: functional; conditions: for zone of inhibition at 5000 µg/mL: MSCL 590, 24 h, read-out: DIZ
Bacillus cereus [5] = assay: Antibacterial activity against Bacillus cereus MSCL 330 after 24 hrs by broth dilution method; format: functional; conditions: MSCL 330, 24 h
[6] = Cytotoxicity against human HT1080 cells assessed as cell viability at 6.25 to 50 ug/ml by crystal violet-based assay; format: functional; conditions: HT-1080, read-out: LC50 (the source's name)
MG-22A [7] = assay: Induction of nitric oxide production in mouse MG-22A cells by Griess assay; format: functional; parameters: concentration or dose not given beside the values
Staphylococcus aureus [8] = assay: Antibacterial activity against Staphylococcus aureus MSCL 334 at 10 mg/ml after 24 hrs by agar dish diffusion method; format: functional; conditions: MSCL 334, 24 h, read-out: DIZ
Pseudomonas aeruginosa [9] = assay: Antibacterial activity against Pseudomonas aeruginosa MSCL 331 at 5 mg/ml after 24 hrs by agar dish diffusion method; format: functional; conditions: for zone of inhibition at 5000 µg/mL: MSCL 331, 24 h, read-out: DIZ
Pseudomonas aeruginosa [10] = assay: Antibacterial activity against Pseudomonas aeruginosa MSCL 331 at 10 mg/ml after 24 hrs by agar dish diffusion method; format: functional; conditions: for zone of inhibition at 10000 µg/mL: MSCL 331, 24 h, read-out: DIZ
MG-22A [11] = assay: Cytotoxicity against mouse MG-22A cells assessed as cell viability at 6.25 to 50 ug/ml by crystal violet-based assay; format: functional; conditions: read-out: LC50 (the source's name)
Aspergillus niger [12] = assay: Antifungal activity against Aspergillus niger MSCL 324 at 5 mg/ml after 48 hrs by agar dish diffusion method; format: functional
Aspergillus niger [13] = assay: Fungicidal activity against Aspergillus niger MSCL 324 incubated for 24 hrs followed by colony transfer to agar plates for 24 hrs by colony counting based assay; format: functional; conditions: MSCL 324, 24 h, read-out: MFC99.9
Candida albicans [14] = assay: Antifungal activity against Candida albicans MSCL 378 at 5 mg/ml after 48 hrs by agar dish diffusion method; format: functional; conditions: MSCL 378, 48 h, read-out: DIZ
Bacillus cereus [15] = assay: Antibacterial activity against Bacillus cereus MSCL 330 at 10 mg/ml after 24 hrs by agar dish diffusion method; format: functional; conditions: MSCL 330, 24 h, read-out: DIZ
Staphylococcus aureus [16] = assay: Antibacterial activity against Staphylococcus aureus MSCL 334 at 5 mg/ml after 24 hrs by agar dish diffusion method; format: functional; conditions: MSCL 334, 24 h, read-out: DIZ
[17] = Cytotoxicity against human HT1080 cells assessed as cell viability at 6.25 to 50 ug/ml after 72 hrs by MTT assay; format: functional; conditions: HT-1080, 72 h, read-out: LC50 (the source's name)
MG-22A [18] = assay: Cytotoxicity against mouse MG-22A cells assessed as cell viability at 6.25 to 50 ug/ml after 72 hrs by MTT assay; format: functional; conditions: read-out: LC50 (the source's name)
Staphylococcus aureus [19] = assay: Antibacterial activity against Staphylococcus aureus MSCL 334 after 24 hrs by broth dilution method; format: functional; conditions: MSCL 334, 24 h
Candida albicans [20] = assay: Antifungal activity against Candida albicans MSCL 378 after 24 hrs by broth dilution method; format: functional; conditions: MSCL 378, 24 h
[21] = Cytotoxicity against mouse NIH/3T3 cells assessed as cell viability at 6.25 to 50 ug/ml by neutral red-based assay; conditions: nih3t3
Escherichia coli [22] = assay: Antibacterial activity against Escherichia coli MSCL 332 at 10 mg/ml after 24 hrs by agar dish diffusion method; format: functional; conditions: MSCL 332, 24 h, read-out: DIZ
Escherichia coli [23] = assay: Antibacterial activity against Escherichia coli MSCL 332 at 5 mg/ml after 24 hrs by agar dish diffusion method; format: functional; conditions: MSCL 332, 24 h, read-out: DIZ
Bacillus cereus [24] = assay: Antibacterial activity against Bacillus cereus MSCL 330 at 5 mg/ml after 24 hrs by agar dish diffusion method; format: functional; conditions: MSCL 330, 24 h, read-out: DIZ
Candida albicans [25] = assay: Fungicidal activity against Candida albicans MSCL 378 incubated for 24 hrs followed by colony transfer to agar plates for 24 hrs by colony counting based assay; format: functional; conditions: MSCL 378, 24 h, read-out: MFC99.9
Bacillus cereus [26] = assay: Bactericidal activity against Bacillus cereus MSCL 330 incubated for 24 hrs followed by colony transfer to agar plates for 24 hrs by colony counting based assay; format: functional; conditions: MSCL 330, 24 h, read-out: MBC99.9
Aspergillus niger [27] = assay: Antifungal activity against Aspergillus niger MSCL 324 at 10 mg/ml after 48 hrs by agar dish diffusion method; format: functional; conditions: MSCL 324, 48 h, read-out: DIZ
Staphylococcus aureus [28] = assay: Bactericidal activity against Staphylococcus aureus MSCL 334 incubated for 24 hrs followed by colony transfer to agar plates for 24 hrs by colony counting based assay; format: functional; conditions: MSCL 334, 24 h, read-out: MBC99.9
Proteus mirabilis [29] = assay: Antibacterial activity against Proteus mirabilis MSCL 590 at 10 mg/ml after 24 hrs by agar dish diffusion method; format: functional; conditions: for zone of inhibition at 10000 µg/mL: MSCL 590, 24 h, read-out: DIZ
Aspergillus niger [30] = assay: Antifungal activity against Aspergillus niger MSCL 324 after 24 hrs by broth dilution method; format: functional; conditions: MSCL 324, 24 h
CCRF S-180 [31] = assay: Antitumor activity against mouse S180 cells allografted into ICR mouse assessed as tumor growth inhibition at 1.5 mg/kg, sc administered on day 1,2,3 and 7 after 24 hrs tumor transplantation measured on day 9; format: functional, organism-based
CCRF S-180 [32] = assay: Antitumor activity against mouse S180 cells allografted into ICR mouse assessed as tumor growth inhibition at 2.5 mg/kg, sc administered on day 1,2,3 and 7 after 24 hrs tumor transplantation measured on day 9; format: functional; conditions: CCRF S-180, sc, read-out: TGI

`CCCCCCCOCCc1sc[n+](C)c1C.[I-]` gave an Activity (HT-1080) of 200%, an MBC (Escherichia coli [1]) of 256 µg/mL and an MIC (Escherichia coli [2]) of 256 µg/mL. The zone of inhibition at 10000 µg/mL (Candida albicans [3]) was 20 mm, the “diameter of the inhibition zone (DIZ)” value (Proteus mirabilis [4]) was “inactive” and the MIC (Bacillus cereus [5]) was greater than 256 µg/mL. For the same compound, the CC50 [6] was 15.6 µM, the Activity (MG-22A [7]) was 100% and the zone of inhibition at 10000 µg/mL (Staphylococcus aureus [8]) was 21 mm. The “diameter of the inhibition zone (DIZ)” value (Pseudomonas aeruginosa [9]) was “inactive”, the “diameter of the inhibition zone (DIZ)” value (Pseudomonas aeruginosa [10]) was “inactive” and the CC50 (MG-22A [11]) was 20.8 µM. The “diameter of the inhibition zone (DIZ)” value (Aspergillus niger [12]) was “inactive”, the MFC (Aspergillus niger [13]) was greater than 256 µg/mL and the zone of inhibition at 5000 µg/mL (Candida albicans [14]) was 13 mm. It also gave a zone of inhibition at 10000 µg/mL (Bacillus cereus [15]) of 13 mm, a zone of inhibition at 5000 µg/mL (Staphylococcus aureus [16]) of 20 mm and a CC50 [17] of 15.6 µM. It also gave a CC50 (MG-22A [18]) of 18.2 µM, an MIC (Staphylococcus aureus [19]) of 16 µg/mL and an MIC (Candida albicans [20]) of 256 µg/mL. The LC50 [21] was 467.3 µM, the zone of inhibition at 10000 µg/mL (Escherichia coli [22]) was 16 mm and the zone of inhibition at 5000 µg/mL (Escherichia coli [23]) was 11 mm. The zone of inhibition at 5000 µg/mL (Bacillus cereus [24]) was 12 mm, the MFC (Candida albicans [25]) was greater than 256 µg/mL and the MBC (Bacillus cereus [26]) was greater than 256 µg/mL. The zone of inhibition at 10000 µg/mL (Aspergillus niger [27]) was 11 mm, the MBC (Staphylococcus aureus [28]) was 64 µg/mL and the “diameter of the inhibition zone (DIZ)” value (Proteus mirabilis [29]) was “inactive”. For the same compound, the MIC (Aspergillus niger [30]) was greater than 256 µg/mL.

For `CCCCCCCCCCCOCCc1sc[n+](C)c1C.[I-]`, the Activity (HT-1080) was 150%, the zone of inhibition at 10000 µg/mL (Candida albicans [3]) was 30 mm and the zone of inhibition at 5000 µg/mL (Proteus mirabilis [4]) was 17 mm. The inhibition (CCRF S-180 [31]) was “inactive”, the CC50 [6] was 1.82 µM and the Activity (MG-22A [7]) was 150%. For the same compound, the zone of inhibition at 10000 µg/mL (Staphylococcus aureus [8]) was 32 mm, the zone of inhibition at 5000 µg/mL (Pseudomonas aeruginosa [9]) was 11 mm and the zone of inhibition at 10000 µg/mL (Pseudomonas aeruginosa [10]) was 12 mm. The CC50 (MG-22A [11]) was 1.36 µM, the “diameter of the inhibition zone (DIZ)” value (Aspergillus niger [12]) was “inactive” and the zone of inhibition at 5000 µg/mL (Candida albicans [14]) was 28 mm. The zone of inhibition at 10000 µg/mL (Bacillus cereus [15]) was 26 mm, the zone of inhibition at 5000 µg/mL (Staphylococcus aureus [16]) was 29 mm and the CC50 [17] was 1.82 µM. For the same compound, the CC50 (MG-22A [18]) was 1.82 µM, the LC50 [21] was 93.3 µM and the zone of inhibition at 10000 µg/mL (Escherichia coli [22]) was 27 mm. The zone of inhibition at 5000 µg/mL (Escherichia coli [23]) was 25 mm, the zone of inhibition at 5000 µg/mL (Bacillus cereus [24]) was 25 mm and the zone of inhibition at 10000 µg/mL (Aspergillus niger [27]) was 17 mm. For the same compound, the inhibition in vivo at 2.5 mg/kg (CCRF S-180 [32]) was 56% and the zone of inhibition at 10000 µg/mL (Proteus mirabilis [29]) was 18 mm.

In the case of `CCCCCCCCCC[n+]1csc(CCOCCCCCCC)c1C.[I-]`, the Activity (HT-1080) is reported as 250%, the MBC (Escherichia coli [1]) is reported as 64 µg/mL and the MIC (Escherichia coli [2]) is reported as 32 µg/mL. The zone of inhibition at 10000 µg/mL (Candida albicans [3]) was 21 mm, the zone of inhibition at 5000 µg/mL (Proteus mirabilis [4]) was 11 mm and the MIC (Bacillus cereus [5]) was 8 µg/mL. It also gave a CC50 [6] of 3.93 µM, an Activity (MG-22A [7]) of 350% and a zone of inhibition at 10000 µg/mL (Staphylococcus aureus [8]) of 22 mm. For the same compound, the zone of inhibition at 5000 µg/mL (Pseudomonas aeruginosa [9]) was 16 mm, the zone of inhibition at 10000 µg/mL (Pseudomonas aeruginosa [10]) was 20 mm and the CC50 (MG-22A [11]) was 0.19 µM. It also gave a zone of inhibition at 5000 µg/mL (Aspergillus niger [12]; MSCL 324, 48 h, read-out: DIZ) of 17 mm, an MFC (Aspergillus niger [13]) of 16 µg/mL and a zone of inhibition at 5000 µg/mL (Candida albicans [14]) of 20 mm. It also gave a zone of inhibition at 10000 µg/mL (Bacillus cereus [15]) of 21 mm, a zone of inhibition at 5000 µg/mL (Staphylococcus aureus [16]) of 21 mm and a CC50 [17] of 3.93 µM. The CC50 (MG-22A [18]) was 1.96 µM, the MIC (Staphylococcus aureus [19]) was 1 µg/mL and the MIC (Candida albicans [20]) was 16 µg/mL. It also gave an LC50 [21] of 19.6 µM, a zone of inhibition at 10000 µg/mL (Escherichia coli [22]) of 20 mm and a zone of inhibition at 5000 µg/mL (Escherichia coli [23]) of 15 mm. It also gave a zone of inhibition at 5000 µg/mL (Bacillus cereus [24]) of 20 mm, an MFC (Candida albicans [25]) of 16 µg/mL and an MBC (Bacillus cereus [26]) of 32 µg/mL. It also gave a zone of inhibition at 10000 µg/mL (Aspergillus niger [27]) of 19 mm, an MBC (Staphylococcus aureus [28]) of 4 µg/mL and a zone of inhibition at 10000 µg/mL (Proteus mirabilis [29]) of 12 mm. It also gave an MIC (Aspergillus niger [30]) of 16 µg/mL.

— ChEMBL document CHEMBL3751718, “Synthesis and biological evaluation of lipid-like 5-(2-hydroxyethyl)-4-methyl-1,3-thiazole derivatives as potential anticancer and antimicrobial agents” (Medchemcomm, 2015)
